Results: patent US10316050B2, “PT (IV) complexes containing 4,4′-disubstituted-2,2′-bipyridyl and their use in cancer therapy” (THE BOARD OF REGENTS OF THE NEVADA SYSTEM OF HIGHER …, priority 2014, dated 2019)

Legend:
Assay type in all cases: cell-based, human
[1] = tested on: phosphorylated H2AX (γH2AX) in DU145 cells; test: Flow cytometry of phosphorylated H2AX, DU145; settings: DU145, 10 μM Pt(IV)-4C or 2.5 μM Pt(IV)-5C for 2 hours, analyzed 7 hours post treatment
Method: FIG. 9 is a series of graphs plotting Pt(IV) complex-induced phosphorylation of H2AX in A549 cells (top panels) and DU145 cells (bottom panels). A549 cells were treated with control (left), 25 μM Pt(IV)-4C (center), or 7.5 μM Pt(IV)-5C (right) for 6 hours, and analyzed 12 hours post treatment. DU145 cells were treated for 2 hours with control (left), 10 μM Pt(IV)-4C (center), or 2.5 μM Pt(IV)-5C (right), and analyzed 7 hours post treatment. Data are representative of three independent experiments.
(§1) Cells (200,000 to 250,000) were seeded in 60 mm dishes and incubated at 37° C. in a humidified, 5% CO2 atmosphere for 2 days to reach ˜50-60% confluence. The cells were treated with the platinum complexes as indicated, the floating cells were collected, and both attached and floating cells were washed 2× with PBS. The cells were resuspended in fresh medium and incubated as indicated. After incubation, both the floating and attached cells were collected and fixed by incubation in 4% formaldehyde for 10 minutes at room temperature. The fixed cells were pelleted and permeabilized by incubation in 500 μL of ice-cold methanol at 4° C. for 10 minutes. The samples were stored at −20° C. until analysis. For analysis, the cells were pelleted and washed 2× with 1% BSA in PBS. […] After washing 2× with 1% BSA, the cells were resuspended in PBS and analyzed on a Becton Dickinson FACS Calibur. […]

DU145 cells = test: Annexin V/PI flow cytometry, DU145; settings: DU145, 10 μM Pt(IV)-4C or 2.5 μM Pt(IV)-5C for 1 hour, analyzed 12 hours post treatment
Method: FIG. 11 is a series of graphs showing flow cytometry analysis of Annexin V/PI staining in A549 cells (top) and DU145 cells (bottom) treated with Pt(IV)-4C and Pt(IV)-5C. A549 cells were treated for 5 hours with control (left), 25 μM Pt(IV)-4C (center), or 10 μM Pt(IV)-5C (right), and analyzed 12 hours post treatment. DU145 cells were treated for 1 hour with control (left), 10 μM Pt(IV)-4C (center), or 2.5 μM Pt(IV)-5C (right) and analyzed 12 hours post treatment. Q1=PI+, represents necrotic cells; Q2=Annexin V/PI+, representing late apoptotic/necrotic cells; Q3=Annexin V+, representing early apoptotic cells; Q4=AnnexinV/PI−, representing live cells. Data are representative of three independent experiments.
Cells (˜50 to 60% confluent in 60 mm dishes) were treated as indicated with the platinum compound. After treatment, the floating cells were collected, and both attached and floating cells were washed 2× with PBS. The cells were resuspended in fresh medium and incubated as indicated. The cells were harvested (both the floating and attached cells were collected), counted, and pelleted. The cells were then washed two times with 5 mL of Ca^2+ and Mg^2+ free PBS. The pellets were then washed in 2.0 mL of 1× Annexin-V Binding buffer (BD Bioscience, San Jose, CAS) and centrifuged at 500×g for 5 minutes. […] A quantitative measure of these event shifts was accomplished by gating. […]

[2] = tested on: cleaved-PARP in A549 cells; test: Flow cytometry of cleaved-PARP, A549; settings: A549, 25 μM Pt(IV)-4C or 7.5 μM Pt(IV)-5C for 5 hours, analyzed 12 hours post treatment
Method: FIG. 12 is a series of histograms indicating Pt(IV)-4C and Pt(IV)-5C-induced cleavage of PARP in A549 cells (top panels) and in DU145 cells (bottom). A549 cells were treated for 5 hours with control (left), 25 μM Pt(IV)-4C (center), or 7.5 μM Pt(IV)-5C (right), and analyzed 12 hours post treatment. DU145 cells were treated for 2 hours with control (left), 10 μM Pt(IV)-4C (center), or 2.5 μM Pt(IV)-5C (right), and analyzed seven hours post treatment. Data are representative of three independent experiments.
as §1

| Molecule | level of phosphorylated H2AX (γH2AX) [1] | Annexin V/PI staining (apoptosis) (DU145 cells) | fold increase of cleaved-PARP [2] |
| --- | --- | --- | --- |
| CC(=O)[O][Pt]([Cl])([Cl])[O]C(C)=O.CCCCCOc1ccnc(-c2cc(OCCCCC)ccn2)c1 [Pt(IV)-5C, [Pt(IV)Cl2(OAc)2(4,4′-dipentoxy-2,2′-bipyridine)]] | increase of γH2AX | induce apoptosis | ~7 fold |
| [Pt(IV)Cl2(OAc)2(4,4′-dibutoxy-2,2′-bipyridine)] [Pt(IV)-4C] | increase of γH2AX | induce apoptosis | ~7 fold |
